Assay results as given in PubChem BioAssay (NCI).
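Growth conditions: 96-well plates. Treatment: test compound, 48 hours, 5 concentrations. Analysis: linear interpolation between bracketing concentrations; unreached endpoints set to highest concentration. TGI denotes the concentration required for complete inhibition of growth.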

Experiments:
Experiment in all cases: NCI-60 cell line screen, 48 h
A498 renal = system: A498 renal
CAKI-1 renal = system: CAKI-1 renal
HOP-62 NSCLC = system: HOP-62 NSCLC
IGROV1 ovarian = system: IGROV1 ovarian
MALME-3M melanoma = system: MALME-3M melanoma
MDA-MB-231 breast = system: MDA-MB-231 breast
NCI-H226 lung = system: NCI-H226 lung
NCI/ADR-RES ovarian = system: NCI/ADR-RES ovarian
SNB-75 CNS = system: SNB-75 CNS
UACC-257 melanoma = system: UACC-257 melanoma

For `CN(C)CCNC(=O)c1ccc(NCCCN(C)CCCNc2ccc3c(=O)n(CCN(C)C)c(=O)n4c5ccccc5c(=O)c2c34)c2c(=O)c3ccccc3[nH]c12`, the TGI (A498 renal) was 0.415 µM, the TGI (CAKI-1 renal) was 1.06 µM and the TGI (HOP-62 NSCLC) was 0.309 µM. For the same compound, the TGI (IGROV1 ovarian) was 1.16 µM, the TGI (MALME-3M melanoma) was 0.453 µM and the TGI (MDA-MB-231 breast) was 0.234 µM. The TGI (NCI-H226 lung) was 0.665 µM, the TGI (NCI/ADR-RES ovarian) was 3.32 µM and the TGI (SNB-75 CNS) was 0.0449 µM. It also gave a TGI (UACC-257 melanoma) of 0.718 µM.

`Cc1ccc(C(=O)N/N=C(\N=Nc2cccc(Cl)c2)c2ccc(N(CCC#N)CCC#N)cc2C)cc1` was tested, and the TGI (A498 renal) was over 100 µM, the TGI (CAKI-1 renal) was over 100 µM and the TGI (HOP-62 NSCLC) was over 100 µM. For the same compound, the TGI (IGROV1 ovarian) was over 100 µM, the TGI (MALME-3M melanoma) was over 100 µM and the TGI (MDA-MB-231 breast) was over 100 µM. It also gave a TGI (NCI-H226 lung) of over 100 µM, a TGI (NCI/ADR-RES ovarian) of over 100 µM and a TGI (SNB-75 CNS) of over 100 µM. The TGI (UACC-257 melanoma) was over 100 µM.

`O=C(CCN1CCCC1)Nc1ccc2sc3ccccc3c(=O)c2n1` gave a TGI (A498 renal) of 33.7 µM, a TGI (CAKI-1 renal) of 16.7 µM and a TGI (HOP-62 NSCLC) of 19.6 µM. It also gave a TGI (IGROV1 ovarian) of 23.6 µM, a TGI (MALME-3M melanoma) of 17.6 µM and a TGI (MDA-MB-231 breast) of 18.6 µM. For the same compound, the TGI (NCI-H226 lung) was 29.2 µM, the TGI (NCI/ADR-RES ovarian) was 21.4 µM and the TGI (SNB-75 CNS) was 18.2 µM. It also gave a TGI (UACC-257 melanoma) of 17 µM.

In the case of `O=C1C=CC(=O)C(CNc2ccc(C(=O)OC34CC5CC(CC(C5)C3)C4)cc2)=C1`, the TGI (A498 renal) is reported as 28 µM, the TGI (CAKI-1 renal) is reported as 2.71 µM and the TGI (HOP-62 NSCLC) is reported as 17.1 µM. It also gave a TGI (IGROV1 ovarian) of 4.86 µM, a TGI (MALME-3M melanoma) of 21.4 µM and a TGI (MDA-MB-231 breast) of 36.2 µM. For the same compound, the TGI (NCI-H226 lung) was 4.47 µM, the TGI (NCI/ADR-RES ovarian) was 44.1 µM and the TGI (SNB-75 CNS) was 18.1 µM. The TGI (UACC-257 melanoma) was 18.2 µM.

`Nc1nc(-c2ccccc2N=NN2CCCC2)nc2ccccc12` was tested, and the TGI (A498 renal) was 20.2 µM, the TGI (CAKI-1 renal) was 18.5 µM and the TGI (HOP-62 NSCLC) was 5.11 µM. It also gave a TGI (IGROV1 ovarian) of 17.3 µM, a TGI (MALME-3M melanoma) of 13.5 µM and a TGI (MDA-MB-231 breast) of 3.63 µM. The TGI (NCI-H226 lung) was 12.2 µM, the TGI (NCI/ADR-RES ovarian) was 12.2 µM and the TGI (SNB-75 CNS) was 23.8 µM. For the same compound, the TGI (UACC-257 melanoma) was 14.9 µM.

With `Cc1ccc(C2=NOC(=O)[C@@H]3CCCC[C@@H]23)cc1` the TGI (A498 renal) was over 100 µM, the TGI (CAKI-1 renal) was over 100 µM and the TGI (HOP-62 NSCLC) was over 100 µM. The TGI (IGROV1 ovarian) was over 100 µM, the TGI (MALME-3M melanoma) was over 100 µM and the TGI (MDA-MB-231 breast) was over 100 µM. The TGI (NCI-H226 lung) was over 100 µM, the TGI (NCI/ADR-RES ovarian) was over 100 µM and the TGI (SNB-75 CNS) was over 100 µM. For the same compound, the TGI (UACC-257 melanoma) was over 100 µM.

`O=C1NC(=O)/C(=C/c2ccc(S(=O)(=O)N/N=C/c3ccc(Cl)cc3)cc2)N1` gave a TGI (A498 renal) of over 100 µM, a TGI (CAKI-1 renal) of over 100 µM and a TGI (HOP-62 NSCLC) of over 100 µM. It also gave a TGI (IGROV1 ovarian) of over 100 µM, a TGI (MALME-3M melanoma) of over 100 µM and a TGI (MDA-MB-231 breast) of over 100 µM. For the same compound, the TGI (NCI-H226 lung) was over 100 µM, the TGI (NCI/ADR-RES ovarian) was over 100 µM and the TGI (SNB-75 CNS) was over 100 µM. For the same compound, the TGI (UACC-257 melanoma) was over 100 µM.

With `CCCCc1cc2c(C)cc(=O)oc2c(O)c1O` the TGI (A498 renal) was 72 µM, the TGI (CAKI-1 renal) was 53.3 µM and the TGI (HOP-62 NSCLC) was 65.8 µM. The TGI (IGROV1 ovarian) was 51.7 µM, the TGI (MALME-3M melanoma) was 88.9 µM and the TGI (MDA-MB-231 breast) was 28 µM. It also gave a TGI (NCI-H226 lung) of 67.9 µM, a TGI (NCI/ADR-RES ovarian) of 56.4 µM and a TGI (SNB-75 CNS) of over 100 µM. For the same compound, the TGI (UACC-257 melanoma) was 66.1 µM.

`CN(C)/N=C/c1cn(C)c(=O)n(C)c1=O` gave a TGI (A498 renal) of over 100 µM, a TGI (CAKI-1 renal) of over 100 µM and a TGI (HOP-62 NSCLC) of over 100 µM. The TGI (IGROV1 ovarian) was over 100 µM, the TGI (MALME-3M melanoma) was over 100 µM and the TGI (MDA-MB-231 breast) was over 100 µM. For the same compound, the TGI (NCI-H226 lung) was over 100 µM, the TGI (NCI/ADR-RES ovarian) was over 100 µM and the TGI (SNB-75 CNS) was over 100 µM. For the same compound, the TGI (UACC-257 melanoma) was over 100 µM.
